The values below come from ChEMBL document CHEMBL1201862, “PubChem BioAssay data set” (2004).

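48-hour exposure; five concentrations; linearly interpolated endpoints. Abbreviation: GI50, concentration required for 50% inhibition of growth.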 Calls of active or inactive are those of the source. Cut-off read from the data, not from the text of the source: active = GI50 up to about 1.1 µM and inactive = higher.

Among the test systems are DU-145; BT-549; IGROV-1; HCT-15; Malme-3M; HOP-62; A549; OVCAR-8; 786-0; A498; SW-620; HL-60; RPMI-8226; MCF7; HCT-116; SR; MDA-MB-435; ACHN; K562; SK-MEL-5.
Holding throughout (assay): NCI anticancer screen, dose series, 48 h

As for `COc1ccc(/C=C2\CCC(C)C3=C2NC(=S)NC3c2ccc(OC)c(OC)c2)cc1OC` (stereo not given), the GI50 in the assay with DU-145 is 27.2 µM (inactive); in the assay on BT-549, 13.3 µM (inactive); in the assay on IGROV-1, 13.6 µM (inactive); in the assay on HCT-15, 9.95 µM; in the assay on Malme-3M, > 10 µM (inactive); in the assay with HOP-62 it was > 100 µM (inactive). The GI50 was 16.9 µM (inactive) with A549; 26.1 µM (inactive) in the assay on OVCAR-8; 22.3 µM (inactive) with 786-0; > 31.6 µM (inactive) with A498; 26.1 µM (inactive) in the assay on SW-620; 3.6 µM (inactive) in the assay with HL-60. The GI50 in the assay on RPMI-8226 is 5.16 µM (inactive); with MCF7, 14.9 µM (inactive); in the assay with HCT-116, 15.3 µM (inactive); in the assay with SR, 2.65 µM (inactive); in the assay on MDA-MB-435 it was 6.3 µM (inactive); in the assay with ACHN, 24.3 µM (inactive). Besides, the GI50 is 3.99 µM (inactive) with K562 and 12.5 µM (inactive) with SK-MEL-5.

Turning to `O=C(NCCCCl)c1c(O)c2ccccc2[nH]c1=O`, the GI50 in the assay with DU-145 was > 100 µM (inactive); with BT-549, > 78 µM (inactive); in the assay with IGROV-1, > 100 µM (inactive); in the assay with HCT-15, greater than 100 µM; with Malme-3M it was > 100 µM (inactive); in the assay on HOP-62, > 50.6 µM (inactive). The GI50 with A549 was > 100 µM (inactive); in the assay with OVCAR-8, > 100 µM (inactive); with 786-0, > 61 µM (inactive); with A498, 32.4 µM (inactive); in the assay on SW-620, > 100 µM (inactive); in the assay on HL-60, > 100 µM (inactive). The GI50 in the assay on RPMI-8226 is > 100 µM (inactive); in the assay with MCF7 it was > 91.8 µM (inactive); in the assay on HCT-116, > 100 µM (inactive); in the assay with SR, > 100 µM (inactive); with MDA-MB-435, > 100 µM (inactive); in the assay on ACHN, > 100 µM (inactive). Besides, the GI50 with K562 and in the assay on SK-MEL-5 was > 100 µM (inactive) throughout.

Turning to `Nc1[nH]c(=S)[nH]c(=O)c1/N=N/c1c(Br)cc(S(N)(=O)=O)cc1Br`, the GI50 with DU-145 is > 100 µM (inactive); in the assay with BT-549, > 100 µM (inactive); in the assay with IGROV-1, > 100 µM (inactive); in the assay on HCT-15 it was greater than 100 µM; in the assay with Malme-3M, > 100 µM (inactive); in the assay with HOP-62 it was > 100 µM (inactive). The GI50 with A549, in the assay with OVCAR-8, in the assay on 786-0, with A498, in the assay with SW-620 and with HL-60 was > 100 µM (inactive) in each case. For the same compound, the GI50 in the assay with RPMI-8226, in the assay on MCF7, with HCT-116, in the assay on SR, in the assay on MDA-MB-435 and in the assay on ACHN was > 100 µM (inactive) each time. For the same compound, the GI50 with K562 and in the assay on SK-MEL-5 was > 100 µM (inactive) in each case.
